The viability is the share of living cells, or the viability signal relative to a control.

Where a SMILES comes first, the peptide text is derived from it. [ ]: non-standard residue; d: D form. The star is where a group is joined. NHCH2CH2OH = OCCN*; For = O=C*

The results in this text go back to publication PMC7531004, “Discovery of gramicidin A analogues with altered activities by multidimensional screening of a one-bead-one-compound library” (Nature Communications, 2020).

The nature of data set [1]: H+/Na+ transport assay of bead-derived peptides (one-point).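 Further: relative to parent gramicidin A activity set to 1.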 The data set is classed as biochemical. Details: key: relative activity; mean of two control wells = 1.00. The note with it: bead-derived peptide solution, EYPC/EYPG LUVs. In a few lines: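 One-point screen: peptide + pyranine-loaded LUVs, 30 min RT with vortexing, 96-well. Read-out is fluorescence intensity scaled as 100 × (Ix – I0)/(Imax – I0). Imax from Triton X-100, I0 from untreated vesicles, and the mean of the two control wells is set to 1.00.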

For data set [2] the following is noted: cell viability/%. Summed up: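 P388 cells at 1 × 10^4 cells/mL (final) were exposed to library peptides (stocks diluted 250-fold in RPMI1640/10% FBS) for 92 h at 37 °C, 5% CO2. Viable cells were counted by WST-1/1-methoxy PMS (4 h), absorbance 415 nm, and expressed as cell viability (%).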
Data set [3] has as its system Streptococcus pyogenes SSI-9. In words: Antibacterial activity assay of bead-derived peptides (three concentrations). The data set is classed as cell-based. Also on record: key: +++: inhibition by the 640-fold diluted peptide solution; ++: inhibition by the 160-fold diluted solution; +: inhibition by the 40-fold diluted solution; -: no inhibition. The note with it: S. pyogenes, bead-derived peptide solution, three concentrations. In a few lines: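 Undiluted, 4-fold and 16-fold DMSO-diluted peptide stocks; S. pyogenes SSI-9, 2 × 10^5 CFU, cation-adjusted MHB (50 mg/L Ca2+, 25 mg/L Mg2+) + 5% laked horse blood; 37 °C, 18 h; readout = cell pellet visible or not.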

For `CNC(=O)C[C@@H](NC(=O)[C@@H](NC(=O)[C@H](NC(=O)[C@H](C)NC(=O)[C@@H](CC(C)C)NC(=O)[C@H](C)NC(=O)CNC(=O)[C@@H](NC=O)C(C)C)C(C)C)C(C)C)C(=O)N[C@@H](Cc1c[nH]c2ccccc12)C(=O)N[C@H](CC(C)C)C(=O)N[C@@H](Cc1c[nH]c2ccccc12)C(=O)N[C@H](CC(C)C)C(=O)N[C@@H](Cc1c[nH]c2ccccc12)C(=O)N[C@H](CC(C)C)C(=O)N[C@@H](Cc1c[nH]c2ccccc12)C(=O)NCCO` [compound 4143] (For-VGA[dL]A[dV]V[dD](NHMe)W[dL]W[dL]W[dL]W-NHCH2CH2OH), the “H+/Na+ transport activity normalized against the value of 1 (1.00)” value (from here on “H+/Na+ transport activity normalized”) in data set [1] is on record as 1.22. For the same compound, the viability in data set [2] is 100%. Moreover, the antibacterial activity entry in data set [3] is “-”.
On the same counts, the results for `CNC(=O)C[C@@H](NC(=O)[C@@H](NC(=O)[C@@H](CC(C)C)NC(=O)[C@H](C)NC(=O)[C@@H](CC(C)C)NC(=O)[C@H](C)NC(=O)CNC(=O)[C@@H](NC=O)C(C)C)C(C)C)C(=O)N[C@@H](Cc1c[nH]c2ccccc12)C(=O)N[C@H](CC(C)C)C(=O)N[C@@H](Cc1c[nH]c2ccccc12)C(=O)N[C@H](CC(C)C)C(=O)N[C@@H](Cc1c[nH]c2ccccc12)C(=O)N[C@@H](C(=O)N[C@@H](Cc1c[nH]c2ccccc12)C(=O)NCCO)C(C)C` [compound 4186] (For-VGA[dL]A[dL]V[dD](NHMe)W[dL]W[dL]W[dV]W-NHCH2CH2OH) are 1.44, 98.7% and “-”.
The like results for `CC(C)C[C@@H](NC(=O)[C@H](C)NC(=O)[C@H](NC(=O)[C@H](C)NC(=O)CNC(=O)[C@@H](NC=O)C(C)C)C(C)C)C(=O)N[C@H](C(=O)N[C@@H](C(=O)N[C@@H](Cc1c[nH]c2ccccc12)C(=O)N[C@H](CC(C)C)C(=O)N[C@@H](Cc1c[nH]c2ccccc12)C(=O)N[C@@H](C(=O)N[C@@H](Cc1c[nH]c2ccccc12)C(=O)N[C@H](CC(C)C)C(=O)N[C@@H](Cc1c[nH]c2ccccc12)C(=O)NCCO)[C@H](C)O)[C@H](C)O)C(C)C` [compound 4195] (For-VGA[dV]A[dL]V[dT]W[dL]W[dT]W[dL]W-NHCH2CH2OH) were, in that order, 1.19, 90.6% and “-”.
The like results for `CNC(=O)C[C@@H](NC(=O)[C@H](Cc1c[nH]c2ccccc12)NC(=O)[C@@H](CC(C)C)NC(=O)[C@H](Cc1c[nH]c2ccccc12)NC(=O)[C@@H](CC(C)C)NC(=O)[C@@H](NC(=O)[C@H](NC(=O)[C@H](C)NC(=O)[C@H](NC(=O)[C@H](C)NC(=O)CNC(=O)[C@@H](NC=O)C(C)C)C(C)C)C(C)C)C(C)C)C(=O)N[C@@H](Cc1c[nH]c2ccccc12)C(=O)N[C@H](CC(C)C)C(=O)N[C@@H](Cc1c[nH]c2ccccc12)C(=O)NCCO` [compound 4203] (For-VGA[dV]A[dV]V[dL]W[dL]W[dD](NHMe)W[dL]W-NHCH2CH2OH) were, in that order, 1.16, 100% and “-”.
Consider `CC(C)[C@H](NC=O)C(=O)NCC(=O)N[C@@H](C)C(=O)N[C@@H](C(=O)N[C@@H](C)C(=O)N[C@@H](C(=O)N[C@H](C(=O)N[C@@H](C(=O)N[C@@H](Cc1c[nH]c2ccccc12)C(=O)N[C@@H](C(=O)N[C@@H](Cc1c[nH]c2ccccc12)C(=O)N[C@@H](C(=O)N[C@@H](Cc1c[nH]c2ccccc12)C(=O)N[C@@H](C(=O)N[C@@H](Cc1c[nH]c2ccccc12)C(=O)NCCO)C(C)C)C(C)C)C(C)C)C(C)C)C(C)C)C(C)C)C(C)C` [compound 4223] (For-VGA[dV]A[dV]V[dV]W[dV]W[dV]W[dV]W-NHCH2CH2OH), for which the “H+/Na+ transport activity normalized” value in data set [1] is 1.09. In data set [2], the viability amounted to 95.6%. Besides, the antibacterial activity entry in data set [3] is reported as “+”.
With `CC(C)C[C@@H](NC(=O)[C@H](C)NC(=O)[C@H](NC(=O)[C@H](C)NC(=O)CNC(=O)[C@@H](NC=O)C(C)C)C(C)C)C(=O)N[C@H](C(=O)N[C@@H](C(=O)N[C@@H](Cc1c[nH]c2ccccc12)C(=O)N[C@@H](C(=O)N[C@@H](Cc1c[nH]c2ccccc12)C(=O)N[C@@H](C(=O)N[C@@H](Cc1c[nH]c2ccccc12)C(=O)N[C@@H](C(=O)N[C@@H](Cc1c[nH]c2ccccc12)C(=O)NCCO)C(C)C)[C@H](C)O)C(C)C)C(C)C)C(C)C` [compound 4258] (For-VGA[dV]A[dL]V[dV]W[dV]W[dT]W[dV]W-NHCH2CH2OH), the “H+/Na+ transport activity normalized” value in data set [1] is listed as 1.00. This compound displayed a viability in data set [2] of 85.9%. Further, the antibacterial activity result in data set [3] is “-”.
Take `CC(C)C[C@@H](NC(=O)[C@H](C)NC(=O)[C@H](NC(=O)[C@H](C)NC(=O)CNC(=O)[C@@H](NC=O)C(C)C)C(C)C)C(=O)N[C@H](C(=O)N[C@H](CC(C)C)C(=O)N[C@@H](Cc1c[nH]c2ccccc12)C(=O)N[C@H](CC(C)C)C(=O)N[C@@H](Cc1c[nH]c2ccccc12)C(=O)N[C@@H](C(=O)N[C@@H](Cc1c[nH]c2ccccc12)C(=O)N[C@@H](C(=O)N[C@@H](Cc1c[nH]c2ccccc12)C(=O)NCCO)[C@H](C)O)[C@H](C)O)C(C)C` [compound 4322] (For-VGA[dV]A[dL]V[dL]W[dL]W[dT]W[dT]W-NHCH2CH2OH): the “H+/Na+ transport activity normalized” value in data set [1] was 1.05. Moreover, the viability in data set [2] amounted to 100%. Moreover, the antibacterial activity result in data set [3] is recorded as “-”.
On the same counts, the results for `CC(C)C[C@@H](NC(=O)[C@H](C)NC(=O)CNC(=O)[C@@H](NC=O)C(C)C)C(=O)N[C@@H](C)C(=O)N[C@@H](C(=O)N[C@H](C(=O)N[C@H](CC(C)C)C(=O)N[C@@H](Cc1c[nH]c2ccccc12)C(=O)N[C@H](CC(C)C)C(=O)N[C@@H](Cc1c[nH]c2ccccc12)C(=O)N[C@@H](C(=O)N[C@@H](Cc1c[nH]c2ccccc12)C(=O)N[C@@H](C(=O)N[C@@H](Cc1c[nH]c2ccccc12)C(=O)NCCO)[C@H](C)O)[C@H](C)O)C(C)C)C(C)C` [compound 4328] (For-VGA[dL]A[dV]V[dL]W[dL]W[dT]W[dT]W-NHCH2CH2OH) are 1.13, 100% and “+”.
The like results for `CC(C)C[C@@H](NC(=O)[C@H](Cc1c[nH]c2ccccc12)NC(=O)[C@H](NC(=O)[C@@H](NC(=O)[C@H](NC(=O)[C@H](C)NC(=O)[C@H](NC(=O)[C@H](C)NC(=O)CNC(=O)[C@@H](NC=O)C(C)C)[C@H](C)O)C(C)C)C(C)C)C(C)C)C(=O)N[C@@H](Cc1c[nH]c2ccccc12)C(=O)N[C@H](CC(C)C)C(=O)N[C@@H](Cc1c[nH]c2ccccc12)C(=O)N[C@@H](C(=O)N[C@@H](Cc1c[nH]c2ccccc12)C(=O)NCCO)C(C)C` [compound 4452] (For-VGA[dT]A[dV]V[dV]W[dL]W[dL]W[dV]W-NHCH2CH2OH) were, in that order, 1.30, 100% and “-”.
On the same counts, the results for `CC(C)C[C@@H](NC(=O)[C@H](Cc1c[nH]c2ccccc12)NC(=O)[C@H](NC(=O)[C@@H](NC(=O)[C@H](NC(=O)[C@H](C)NC(=O)[C@H](NC(=O)[C@H](C)NC(=O)CNC(=O)[C@@H](NC=O)C(C)C)C(C)C)C(C)C)C(C)C)C(C)C)C(=O)N[C@@H](Cc1c[nH]c2ccccc12)C(=O)N[C@H](CC(C)C)C(=O)N[C@@H](Cc1c[nH]c2ccccc12)C(=O)N[C@@H](C(=O)N[C@@H](Cc1c[nH]c2ccccc12)C(=O)NCCO)[C@H](C)O` [compound 4603] (For-VGA[dV]A[dV]V[dV]W[dL]W[dL]W[dT]W-NHCH2CH2OH) are 1.12, 100% and “++”.
As to `CC(C)C[C@@H](NC(=O)[C@H](C)NC(=O)[C@H](NC(=O)[C@H](C)NC(=O)CNC(=O)[C@@H](NC=O)C(C)C)[C@H](C)O)C(=O)N[C@H](C(=O)N[C@@H](C(=O)N[C@@H](Cc1c[nH]c2ccccc12)C(=O)N[C@H](CC(C)C)C(=O)N[C@@H](Cc1c[nH]c2ccccc12)C(=O)N[C@H](CC(C)C)C(=O)N[C@@H](Cc1c[nH]c2ccccc12)C(=O)N[C@@H](C(=O)N[C@@H](Cc1c[nH]c2ccccc12)C(=O)NCCO)C(C)C)C(C)C)C(C)C` [compound 4605] (For-VGA[dT]A[dL]V[dV]W[dL]W[dL]W[dV]W-NHCH2CH2OH), the “H+/Na+ transport activity normalized” value in data set [1] is given as 1.35. This compound also returned a viability in data set [2] of 100%. Moreover, in data set [3], the antibacterial activity result was “-”.
Consider `CC(C)C[C@@H](NC(=O)[C@H](C)NC(=O)[C@H](NC(=O)[C@H](C)NC(=O)CNC(=O)[C@@H](NC=O)C(C)C)[C@H](C)O)C(=O)N[C@H](C(=O)N[C@H](CC(C)C)C(=O)N[C@@H](Cc1c[nH]c2ccccc12)C(=O)N[C@@H](C(=O)N[C@@H](Cc1c[nH]c2ccccc12)C(=O)N[C@H](CC(C)C)C(=O)N[C@@H](Cc1c[nH]c2ccccc12)C(=O)N[C@H](CC(C)C)C(=O)N[C@@H](Cc1c[nH]c2ccccc12)C(=O)NCCO)C(C)C)C(C)C` [compound 4687] (For-VGA[dT]A[dL]V[dL]W[dV]W[dL]W[dL]W-NHCH2CH2OH), for which the “H+/Na+ transport activity normalized” value in data set [1] worked out at 1.04. The viability in data set [2] came out at 94.4%. For the same compound, the antibacterial activity entry in data set [3] was “-”.
